From ChEMBL document CHEMBL1201862, “PubChem BioAssay data set” (2004) come the findings set out here.

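Values below derive from 48-hour exposures of cells grown in 96-well plates, with endpoints linearly interpolated between the two concentrations bracketing the appropriate inhibition level. At the GI50, growth is halved.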 Active and inactive are the calls of the source. Rule as the data show it: active = GI50 up to about 1.1 µM and inactive = higher.

Holding throughout (assay): growth of human tumour cells (NCI), 48 h
In test [1] the test system is PC-3.
Test [2] deals with MDA-MB-435.
Test [3] concerns MDA-N.
The test system of test [4] is DU-145.
Test [5] deals with DMS-273.
In test [6] the test system is SNB-78.
Test [7] relates to HOP-18.
Test [8] has as its system RXF 631.
Test [9] concerns 786-0.

`c1nc2nc[nH]c(SSc3[nH]cnc4ncnc3-4)c-2n1`: the GI50 in test [1] was 1.23 µM (inactive).

Turning to `CCSc1nc(N)c2c(-c3ccccc3)c3c(nc2n1)CCC3`, the GI50 in test [2], in test [3], in test [1] and in [4] was > 100 µM (inactive) in each case.

As to `CC1CN=C(Nc2cccc(C(F)(F)F)c2)S1` (stereo not given), the GI50 is 53.1 µM (inactive) in [2], 40.6 µM (inactive) in test [3] and 70.8 µM (inactive) in test [4].

As for `COc1ccc(N2C(=O)CSC2c2c[nH]c3ccccc23)cc1` (stereo not given), the GI50 in test [2] was 41.5 µM (inactive); in test [3] it was 35.2 µM (inactive); in test [1], 24.7 µM (inactive); in [4], 51.8 µM (inactive).

`NC(S)=Nc1cc(Cl)ccc1Cl`: the GI50 in test [5], in test [6], in [7] and in test [8] was > 100 µM (inactive) each time.

Turning to `CCOC(=O)[C@H]1Nc2c(cccc2[N+](=O)[O-])[C@H]2OCC[C@@H]12`, the GI50 in test [5], in test [6], in [7] and in test [8] was > 100 µM (inactive) in each case.

In the case of `Nc1ncnc2c1sc1nc3ccccc3n12`, the GI50 in test [2], in [1] and in test [4] was > 100 µM (inactive) each time.

For the compound `S=C(N/N=C(/c1ccccc1)c1ccccn1)Nc1cccc(Cl)c1`, the figures for the GI50 in [2], in test [3] and in test [4] were 0.802 µM (active), 0.557 µM (active) and 1.15 µM (inactive), respectively.

In the case of `Nc1c(Br)cc2c(c1Br)Cc1cc(Br)ccc1-2`, the GI50 in test [2], in [3], in test [1] and in [4] was > 100 µM (inactive) each time.

Take `O=C(NCCCCCCNC(=O)n1cc(F)c(=O)[nH]c1=O)NCCCOCCOCCCNC(=O)C(O)C(O)C(O)C(O)CO` (stereo not given): the GI50 in test [5], in [6] and in test [7] was > 2.5 µM (inactive) each time.

`Cc1cnc(SCCN2CCN(C)CC2)nc1-c1cc2ccccc2s1`: the GI50 in test [5] is 4.93 µM (inactive); in test [6], 16.7 µM (inactive); in [7], < 0.01 µM (active); in [9], 12 µM (inactive).

On to `O=[N+]([O-])c1cc2ncc(-c3ccccc3)c(O)c2cc1/C(Cl)=C/c1ccccc1`, for which the GI50 in [5] is 5.61 µM (inactive); in test [6], 8.73 µM (inactive); in test [7] it was 2.11 µM (inactive).

As for `COc1cc(/N=N\c2cccc(S(=O)(=O)O)c2)c(C)cc1/N=N\c1ccc(/C=C/c2ccc(/N=[N+](/[O-])c3ccc(/C=C/c4ccc(/N=N\c5cc(C)c(/N=N/c6cccc(S(=O)(=O)O)c6)cc5OC)cc4)c(S(=O)(=O)O)c3)cc2S(=O)(=O)O)cc1`, the GI50 in [5] and in [7] was > 100 µM (inactive) each time.

As for `N=C(N)NS(=O)(=O)c1ccc(Nc2c3ccccc3nc3c(C(=O)N4CCN(CCO)CC4)ccc(Cl)c23)cc1`, the GI50 in test [6] was 30.5 µM (inactive).

Take `CCN(CC)c1ccc2cc(C(=O)Nc3ccc4[nH]c(C(=O)N5C[C@@H](CCl)c6c5cc(OC(=O)Nc5ccccc5)c5[nH]cc(C)c65)cc4c3)oc2c1` [CARZELESIN]: the GI50 in [5] is 9.33e-05 µM (active); in test [6] it was 0.000995 µM (active); in test [7], < 0.1 µM (active).

Regarding `O=C(N/N=C\C(F)(F)F)c1ccncc1`, the GI50 in [2] is 9.59 µM (inactive); in test [1], 26.9 µM (inactive); in [4] it was 8.57 µM (inactive).

As for `CCOC(=O)NC(=O)c1cn(CCNCCO)c(=O)[nH]c1=O`, the GI50 in [6] was > 100 µM (inactive).

As for `CC(=O)/C=C/c1c[nH]c(=O)[nH]c1=O`, the GI50 in test [5] is 89.1 µM (inactive); in test [6], 159 µM (inactive); in test [7], 155 µM (inactive).

For the compound `O=C1CC(=O)N(c2ccccc2)N1/C(=C/c1ccccc1)c1ccccc1`, the GI50 in test [2] was 18.9 µM (inactive); in test [3] it was 13.6 µM (inactive); in test [1], 15.7 µM (inactive); in test [4], 24.4 µM (inactive).

On to `Cc1ccc(C(=O)C2CC3(CCC2(O)c2ccc(C)cc2)CC(=O)Nc2ccccc2C3=O)cc1` (stereo not given), for which the GI50 was > 100 µM (inactive) in [2], > 100 µM (inactive) in [3], 7.05 µM (inactive) in test [1] and > 100 µM (inactive) in test [4].

In the case of `COc1ccc(-c2cc(-c3ccccc3)c(C#N)c(=O)n2C2OC(CO)C(O)C(O)C2O)cc1` (stereo not given), the GI50 in test [5], in test [6], in [7], in test [8] and in [9] was > 100 µM (inactive) throughout.

Regarding `Cc1ccc(N(O)C(C)(C)C)cc1`, the GI50 in test [5] and in test [7] was > 100 µM (inactive) each time.

On to `Nc1nc(=O)n(CC(O)CO)s1` (stereo not given), for which the GI50 in [5], in [7] and in test [8] was > 100 µM (inactive) in each case.

Take `Cc1cccc(C)c1NC(=S)N/C=C(\C#N)C(N)=O`: the GI50 in test [2], in test [3], in test [1], in test [9] and in test [4] was > 100 µM (inactive) in each case.

For the compound `COc1nc(-c2cn(S(=O)(=O)c3ccc(C)cc3)c3ccc(Br)cc23)cc(C(F)(F)F)c1C#N`, the GI50 in test [2] is 81.1 µM (inactive); in [3], > 100 µM (inactive); in test [1], 47.4 µM (inactive); in test [4], 16.5 µM (inactive).
